Results as given in patent publication US7851653B2, “Method of creating a solvent-free polymeric silicon-containing quaternary ammonium antimicrobial agent having superior sustained antimicrobial properties” (priority 2005, dated 2010).

Experiments:
E. coli [1] = assay: minimum inhibitory concentration (MIC) using E. coli; type: cell-based; settings: Escherichia coli
Method: Two volumes of 0.01N NH4OH in water were added slowly to one volume of a 42% by weight solution of 3-(trimethoxysilyl) propyldimethyloctadecyl ammonium chloride in methanol while stirring at room temperature. After ten minutes an additional two volumes of 0.01N NH4OH were added, stirring continued for an additional ten minutes. An additional five volumes of 0.1N NH4OH were added and stirred for an additional ten minutes. The methanol and NH4OH were removed by evaporation and the resulting polymer concentrated to 5% (wt/wt) in a rotary evaporator. The solution was dried to a methanol-free dry powder. Infrared and NMR spectroscopy confirmed the resultant powder was a homopolymer of (trimethoxysilyl) propyldimethyloctadecyl ammonium chloride.

E. coli [2] = assay: ASTM E 2149-01 antimicrobial activity of immobilized agents under dynamic contact conditions (dynamic shake flask test); type: cell-based
Method: (§1) Antimicrobial testing of the cast PVC films of Example 4 was carried out essentially as described in the ASTM designation E 2149-01 entitled, “Standard test Method for Determining the Antimicrobial Activity of Immobilized Antimicrobial Agents under Dynamic Contact Conditions.” This test is designed to evaluate the antimicrobial properties of materials, which contain active agents that are non-leaching. The method is described briefly below.
E. coli was grown overnight in rich media in an incubator-shaker at 37° C. while shaking at 300 rpm. After 18 hours of incubation, the bacteria were removed from the incubator and the optical density at 660 nm was measured. The culture was diluted until the optical density corresponds to a bacterial concentration of between 1×10^8 and 3×10^8 Colony Forming Units (CFU) per milliliter. The bacteria were further diluted in phosphate buffer (0.3 mM KPO4 at pH 7.2) such that the working concentration was 1×10^6 to 3×10^6 CFU/mL. Test specimens were added to sterile 15 mL test tubes followed by the addition of 3 mL of the bacterial solution. An aliquot was immediately removed from the flask, serially diluted, and used to inoculate Petri plates containing nutrient agar. The plates were incubated overnight and the concentration of bacteria (CFU/mL) was thus determined. This represents the Time 0 (T0) control. […]

[3] = carbon tetrachloride (CTC) activity of activated carbon, ASTM Method D3467; type: physicochemical
Method: Determining whether the impregnation of the carbon with antimicrobial agents had any adverse effect on the adsorption properties of the carbon was accomplished by testing the carbon tetrachloride (CTC) activity of the carbon prior to impregnation and following impregnation with the monomer and polymer forms of the antimicrobial agent. The CTC activity testing was performed by a vendor in accordance with ASTM Method […].

E. coli [4] = assay: ASTM E2149-01 on treated cotton swatches before and after accelerated laundering AATCC 61-1996; type: cell-based
Method: as §1
E. coli was grown overnight in rich media in an incubator-shaker at 37° C. while shaking at 300 rpm. After 18 hours of incubation, the bacteria were removed from the incubator and the optical density at 660 nm was measured. The culture was diluted until the optical density corresponds to a bacterial concentration of between 1×10^8 and 3×10^8 Colony Forming Units (CFU) per milliliter. The bacteria were further diluted in phosphate buffer (0.3 mM KPO4 at pH 7.2) such that the working concentration was 1×10^6 to 3×10^6 CFU/mL. Test specimens were added to sterile 15 mL test tubes followed by the addition of 3 mL of the bacterial solution. An aliquot was immediately removed from the flask, serially diluted, and used to inoculate Petri plates containing nutrient agar. The plates were incubated overnight and the concentration of bacteria (CFU/mL) was thus determined. This represents the Time 0 (T0) control. The tube containing the sample was placed in a shaking incubator at 37° C. and 300 rpm for one hour, at which time another aliquot was taken and tested as above. This is the treated sample (TF). All tests were controlled by the inclusion of a tube that contained an untreated sample and a flask with no sample but with bacteria. […] Log kill is a standard method to establish the ability of antimicrobial agents to destroy microorganisms. A log kill of 5.0 means that 100,000 microorganisms were destroyed on contact with the treated surface. A log kill of 6.0 establishes that 1,000,000 microorganisms were destroyed on contact with the treated surface. A log kill in excess of 5.0 is typically interpreted as an exceptionally active antimicrobial agent.
Unbleached cotton fabric was treated with various concentration levels of both monomeric 3-(trimethoxysilyl) propyldimethyloctadecyl ammonium chloride and the homopolymer of 3-(trimethoxysilyl) propyldimethyloctadecyl ammonium chloride as prepared in Example 2. In all cases 2 inch (5.1 cm) by 2 inch (5.1 cm) swatches of fabric were treated by immersing them in an aqueous solution containing the respective concentration of monomeric or polymeric 3-(trimethoxysilyl) propyldimethyloctadecyl ammonium chloride for a minimum of ten minutes. The swatches were subsequently removed from the aqueous solution and air-dried overnight. The swatches were analyzed for antimicrobial activity using ASTM E2149-01 as described in Example 5 followed by an accelerated laundering test according to AATCC 61-1996, which simulates multiple laundering effects. The swatches were again analyzed for antimicrobial activity according to ASTM E2149-01 to determine the effect of laundering on the antimicrobial activity. Antimicrobial activity is reported as percent reduction in E. coli concentration.

## CCCCCCCCCCCCCCCCCC[N+](C)(C)CCC[Si](OC)(OC)OC.[Cl-] [Monomer, 3-(trimethoxysilyl) propyldimethyloctadecyl ammonium chloride]
E. coli [1]
  MIC: 0.98 µg/mL
E. coli [2]; coconut shell activated carbon treated at 0.1 wt. % agent
  Log Kill: None
E. coli [2]; coconut shell activated carbon treated at 0.25 wt. % agent
  Log Kill: 6.11
[3]; activated carbon treated at 0.1 wt. % agent
  (Wt.) % CTC: 77.6 (Wt.) %
[3]; activated carbon treated at 0.25 wt. % agent
  (Wt.) % CTC: 73.4 (Wt.) %
[3]; activated carbon treated at 0.5 wt. % agent
  (Wt.) % CTC: 75.4 (Wt.) %
E. coli [4]; 0.010 % active in solution
  % Reduction, laundered: 0%
  % Reduction, unlaundered: 22%
E. coli [4]; 0.025 % active in solution
  % Reduction, laundered: 0%
  % Reduction, unlaundered: 38%
E. coli [4]; 0.050 % active in solution
  % Reduction, laundered: 98.86%
  % Reduction, unlaundered: 95%
E. coli [4]; 0.075 % active in solution
  % Reduction, laundered: 99.19%
  % Reduction, unlaundered: 99.59%
E. coli [4]; 0.100 % active in solution
  % Reduction, laundered: 99.91%
  % Reduction, unlaundered: 99.99%
E. coli [4]; 0.25 % active in solution
  % Reduction, laundered: 99.99%
  % Reduction, unlaundered: 99.99%
